Data set [1] deals with T1, Neuropeptide Y receptor type 2 (Homo sapiens, UniProt P49146).
T1 sequence (P49146 whole entry): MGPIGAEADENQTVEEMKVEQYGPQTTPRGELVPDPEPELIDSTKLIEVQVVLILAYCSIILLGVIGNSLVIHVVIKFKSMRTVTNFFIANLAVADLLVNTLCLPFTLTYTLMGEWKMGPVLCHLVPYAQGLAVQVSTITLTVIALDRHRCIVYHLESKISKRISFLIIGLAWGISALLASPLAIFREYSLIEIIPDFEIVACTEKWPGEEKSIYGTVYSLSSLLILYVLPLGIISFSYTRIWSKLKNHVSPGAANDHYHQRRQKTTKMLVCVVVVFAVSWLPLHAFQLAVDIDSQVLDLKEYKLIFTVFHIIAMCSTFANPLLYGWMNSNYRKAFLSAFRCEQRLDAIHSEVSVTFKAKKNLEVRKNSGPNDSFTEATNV
The data set can be described thus: Displacement of [125I]-PYY from human neuropeptide Y2 receptor expressed in CHO cell membranes incubated for 60 mins by TopCount based method.

Data set [2] addresses T1, Neuropeptide Y receptor type 2. The data set can be described thus: Agonist activity at human neuropeptide Y2 receptor expressed in CHO cell membranes assessed as stimulation of [35S]GTPgammaS binding incubated for 120 mins by liquid scintillation counting method. It counts as functional.
For data set [3], the system named is Mus musculus. Nature of the data set: Anorectic activity in C57BL/6J mouse assessed as inhibition of food intake at 0.1 mg/kg/day, sc for 3 days dosed as continuous administration by infusion using osmotic pump. It counts as functional. Particulars: 72 h.
Data set [4] concerns Mus musculus. The data set can be described thus: Anorectic activity in C57BL/6J mouse assessed as inhibition of food intake at 0.03 mg/kg/day, sc for 3 days dosed as continuous administration by infusion using osmotic pump. It counts as functional. The settings on record: 72 h.
Data set [5] relates to Mus musculus. The data set can be described thus: Anorectic activity in C57BL/6J mouse assessed as inhibition of food intake at 0.3 mg/kg/day, sc dosed as […] and measured after 12 hrs. The format is functional.
Data set [6] deals with Mus musculus. The data set can be described thus: Anorectic activity in C57BL/6J mouse assessed as inhibition of food intake at 0.3 mg/kg/day, sc dosed as […] and measured after 24 hrs. It counts as functional.
In data set [7] the test system is Mus musculus. Nature of the data set: Drug level in C57BL/6J mouse at 1 mg/kg, iv measured during 5 mins to 24 hrs by LC/MS/MS method. It counts as ADME, organism-based. Particulars: in vivo, read-out: Drug uptake.
Data set [8] in a line: AUC (0 to 24 hrs) in C57BL/6J mouse at 1 mg/kg, iv measured during 5 mins to 24 hrs by LC/MS/MS method. The format is ADME, organism-based. Also noted: dose 1 mg/kg, time < 24 hr, route intravenous. Particulars: in vivo.
Data set [9] can be described thus: MRT in C57BL/6J mouse at 1 mg/kg, iv measured during 5 mins to 24 hrs by LC/MS/MS method. Particulars: in vivo. The format is ADME, organism-based.
Data set [10] in a line: Volume of distribution at steady state in C57BL/6J mouse at 1 mg/kg, iv measured during 5 mins to 24 hrs by LC/MS/MS method. It counts as ADME, organism-based. Particulars: in vivo, read-out: Vdss.
The nature of data set [11]: Total clearance in C57BL/6J mouse at 1 mg/kg, iv measured during 5 mins to 24 hrs by LC/MS/MS method. It counts as ADME, organism-based. Particulars: in vivo.
Data set [12] can be described thus: Cmax in C57BL/6J mouse at 1 mg/kg, sc measured during 5 mins to 24 hrs by LC/MS/MS method. Also noted: dose 1 mg/kg, route subcutaneous. Particulars: in vivo. It counts as ADME, organism-based.
Data set [13] in a line: Tmax in C57BL/6J mouse at 1 mg/kg, sc measured during 5 mins to 24 hrs by LC/MS/MS method. The format is ADME, organism-based. The settings on record: in vivo.
Data set [14] can be described thus: AUC (0 to 24 hrs) in C57BL/6J mouse at 1 mg/kg, sc measured during 5 mins to 24 hrs by LC/MS/MS method. It counts as ADME, organism-based. Also noted: time < 24 hr, dose 1 mg/kg, route subcutaneous. Particulars: in vivo.
The nature of data set [15]: MRT in C57BL/6J mouse at 1 mg/kg, sc measured during 5 mins to 24 hrs by LC/MS/MS method. The format is ADME, organism-based. The settings on record: in vivo.
Data set [16] in a line: Bioavailability in C57BL/6J mouse at 1 mg/kg, sc measured during 5 mins to 24 hrs by LC/MS/MS method. Particulars: in vivo. It counts as ADME, organism-based.
Data set [17] concerns Mus musculus. The data set can be described thus: Antiobesity activity in DIO C57BL/6J mouse assessed as reduction in body weight at 0.01 mg/kg, sc for 2 weeks dosed as continuous administration by infusion of osmotic pumps. It counts as functional. Particulars: 336 h.
Data set [18] concerns Mus musculus. The data set can be described thus: Antiobesity activity in DIO C57BL/6J mouse assessed as reduction in body weight at 1 mg/kg, sc […] for 2 weeks dosed by infusion of osmotic pumps. It counts as functional. Particulars: 336 h.

Results on two compounds are retold here after ChEMBL document CHEMBL4177573 (Bioorg Med Chem, 2017).

As usually defined, the IC50 is the midpoint of a concentration-inhibition curve. Higher therefore signals weaker potency. Usually EC50 stands for the midpoint of the concentration-response curve. Usually inhibition in vivo stands for the relative decrease from the control value, in per cent. A word on the AUC(0-t): it is the area under the concentration-time curve up to a stated or last time point. By MRT is commonly meant a mean duration of stay, worked out from the concentration-time curve. As a reminder, the clearance is the volume of plasma or blood freed of the substance per unit of time. As usually defined, the Cmax is the maximum level reached in the sampled fluid or tissue. By Tmax is commonly meant the time at which the peak concentration occurs.

Take `CC[C@](C)(NC(=O)[C@H]1CCCN1C(=O)[C@H](CO)NC(C)=O)C(=O)N[C@@H](Cc1ccncc1)C(=O)N[C@@H](CC1CCCCC1)C(=O)NC(C)(C)C(=O)N[C@@H](CC(N)=O)C(=O)N[C@@H](CCCCN)C(=O)NC(C)(C)C(=O)N[C@H](C(=O)N[C@@H](CCCNC(=N)N)C(=O)N[C@@H](CCC(N)=O)C(=O)N[C@@H](CCCNC(=N)N)C(=O)N[C@@H](CC1CCCCC1)C(N)=O)[C@@H](C)O`: in data set [1], the IC50 turned out to be 1800 pM. In addition, in data set [2], the EC50 is 280 pM. In addition, the inhibition in vivo at 0.1 mg/kg/day in the data set with Mus musculus [3] was 68%. For the same compound, the inhibition in vivo at 0.03 mg/kg/day with Mus musculus [4] stood at 46%. The inhibition in vivo at 0.3 mg/kg/day stood at 22% in the data set on Mus musculus [5] and 7% in the data set on Mus musculus [6]. Besides, in the data set with Mus musculus [7], the concentration is 1270 nM. Moreover, the values for the AUC(0-t) at 24 h in data set [8] and in [14] were 0.232 µM·h and 0.125 µM·h, respectively. The MRT was determined as 12 min in data set [9] and 22.2 min in data set [15]. In addition, the Vd in data set [10] came out at 0.5 L/kg. Besides, the clearance in [11] is 41 mL/min/kg. For the same compound, the maximum concentration (Cmax) in data set [12] stood at 227 nM. Besides, in data set [13], the Tmax is 15 min. Moreover, the bioavailability in [16] is 53.7%.

`CC[C@](C)(NC(=O)[C@H](CC1CCCCC1)NC(=O)[C@H](Cc1ccncc1)NC(=O)[C@](C)(CC)NC(=O)[C@H]1C[C@H](O)CN1C(=O)[C@H](CO)NC(C)=O)C(=O)N[C@@H](CC(N)=O)C(=O)N[C@@H](CCCCN)C(=O)NC(C)(C)C(=O)N[C@H](C(=O)N[C@@H](CCCNC(=N)N)C(=O)N[C@@H](CCC(N)=O)C(=O)N[C@@H](CCCNC(=N)N)C(=O)N[C@@H](CC1CCCCC1)C(N)=O)[C@@H](C)O` had an IC50 in data set [1] of 460 pM. Moreover, the EC50 in [2] amounted to 170 pM. Also, the inhibition in vivo at 0.03 mg/kg/day in the data set on Mus musculus [4] is 56%. Besides, the inhibition in vivo at 0.3 mg/kg/day in the data set with Mus musculus [5] was 38%; in the data set on Mus musculus [6], 23%. For the same compound, the inhibition in vivo at 0.01 mg/kg in the data set with Mus musculus [17] was found to be 5%. Also, the inhibition in vivo at 1 mg/kg in the data set with Mus musculus [18] was found to be 1.7%. The concentration in the data set on Mus musculus [7] came to 1660 nM. For the same compound, the AUC(0-t) at 24 h stood at 0.435 µM·h in [8] and 0.469 µM·h in data set [14]. Besides, the mean residence time (MRT) in data set [9] was 21 min; in data set [15], 31.2 min. Also, the Vd in data set [10] was determined as 0.41 L/kg. Moreover, the clearance in data set [11] is 19.5 mL/min/kg. For the same compound, the Cmax in data set [12] was found to be 666 nM. Further, in data set [13], the Tmax came out at 15 min. Moreover, in data set [16], the bioavailability was 108%.
